Results from patent publication US9861616B2, “Methods for treating respiratory diseases and formulations therefor” (priority 2013, dated 2018).
Values after ≈ are worked out from the molar mass of the structure shown.

Assays:
P. aeruginosa (PA) = test: MIC by microdilution, 36 clinical and laboratory strains with known efflux phenotype; type: cell-based
Protocol: MICs of 36 clinical and laboratory strains of PA with known efflux phenotype are measured by microdilution in cation-adjusted Muller-Hinton broth (CA-MHB) or in RPMI medium (commonly used in eukaryotic cell culture). Phe-Arg-β-naphthylamide (PaβN, 50 mg/L) and EGTA 5 mM are used to inhibit efflux pumps and alter OM integrity, respectively. P. aeruginosa strain ATCC PAO1 is used as reference. PA12 is a clinical strain overexpressing the 4 main efflux systems (MexAB, MexCD, MexEF, MexXY), PA403 is a laboratory strain deleted in the genes coding for the 4 efflux systems. A series of reference strains or of clinical isolates for which the expression of genes coding for efflux pumps is known is also used for MICs determinations. MICs are measured by microdilution in MH broth or in RPMI medium (used for eukaryotic cells culture) supplemented with 10% of fetal calf serum, or in MH broth supplemented by increasing amounts of serum. EGTA (5 mM) was used as a chelating agent (disrupting outer membrane integrity) and PaβN (50 mg/L) as an unspecific efflux inhibitor.

IL-8 (CXCL8) release = test: LPS-induced IL-8 (CXCL8) release in PMA-differentiated U937 cells (ELISA); type: cell-based, human
Protocol: Effects of macrolides on lipopolysaccharide (LPS)-induced CXCL8 release in PMA-differentiated U937 cells. […] LPS-induced CXCL8 release was evaluated by ELISA. Values represent means of three experiments±SEM. ^##p<0.01 (vs. non-treatment control), *p<0.05, **p<0.01 (vs. treatment with LPS only).
The human monocytic cell line U937 was obtained from the American Type Culture Collection (ATCC, Rockville, Md.). PBMCs from COPD patients were obtained from Brompton hospital and separated by AccuSPIN (Sigma-Aldrich). Cells were cultured in complete growth medium (RPMI 1640) (Sigma-Aldrich) supplemented with 10% fetal bovine serum (FBS) and 1% L-glutamine at 37° C. in a humidified atmosphere with 5% CO2. U937 cells were differentiated into adherent macrophage-like morphology by exposure to PMA (50 ng/mL) for 48 hrs in complete growth medium. Cell viability was assessed microscopically by trypan blue staining. Cell toxicity was determined by MTT assay as needed. This study was approved by the ethics committee of the Royal Brompton Hospitals, and all subjects gave written informed consent.
TNFα and IL-8 concentrations in the supernatant of cell cultures were determined by sandwich ELISA according to the manufacturer's instructions (R&D Systems Europe, Abingdon, UK).
The results were expressed as the mean±SEM. Comparisons of data in two groups were performed using the Student's t test or the Wilcoxon signed rank test. Multiple comparisons were made by one-way ANOVA with post hoc test (Dunnett's) as appropriate. The difference was considered significant at p<0.05. IC50 values (50% inhibitory concentration) for macrolides for production of cytokines or MMP9 were calculated using Prism 4.0 (GraphPad Software Inc., San Diego, Calif.).

`CC[C@H]1OC(=O)[C@H](C)[C@@H](O[C@H]2C[C@@](C)(OC)[C@@H](O)[C@H](C)O2)[C@H](C)[C@@H](O[C@@H]2O[C@H](C)C[C@H](N(C)C)[C@H]2O)[C@](C)(O)C[C@@H](C)CN(C)[C@H](C)[C@@H](O)[C@]1(C)O` [AZM, azithromycin] was tested, and the MIC (P. aeruginosa (PA); strain 1, efflux AB+, MHB) was 128 µg/mL (≈ 171 µM), the MIC (P. aeruginosa (PA); strain 1, efflux AB+, RPMI) was 4 µg/mL (≈ 5.34 µM) and the MIC (P. aeruginosa (PA); strain 2, efflux CD+, MHB) was 512 µg/mL (≈ 684 µM). It also gave an MIC (P. aeruginosa (PA); strain 2, efflux CD+, RPMI) of 4 µg/mL (≈ 5.34 µM), an MIC (P. aeruginosa (PA); strain 3, efflux EF+, MHB) of 64 µg/mL (≈ 85.4 µM) and an MIC (P. aeruginosa (PA); strain 3, efflux EF+, RPMI) of 2 µg/mL (≈ 2.67 µM). The MIC (P. aeruginosa (PA); strain 4, efflux XY+, MHB) was 256 µg/mL (≈ 342 µM), the MIC (P. aeruginosa (PA); strain 4, efflux XY+, RPMI) was 2 µg/mL (≈ 2.67 µM) and the MIC (P. aeruginosa (PA); strain 11, efflux AB + CD+, MHB) was 128 µg/mL. The MIC (P. aeruginosa (PA); strain 11, efflux AB + CD+, RPMI) was 2 µg/mL, the MIC (P. aeruginosa (PA); strain 12, efflux AB + CD + EF + XY+, MHB) was 256 µg/mL and the MIC (P. aeruginosa (PA); strain 12, efflux AB + CD + EF + XY+, RPMI) was 2 µg/mL. For the same molecule, the MIC (P. aeruginosa (PA); strain 16, efflux AB + XY+, MHB) was 256 µg/mL, the MIC (P. aeruginosa (PA); strain 16, efflux AB + XY+, RPMI) was 4 µg/mL and the MIC (P. aeruginosa (PA); strain 21, efflux AB+, MHB) was 256 µg/mL (≈ 342 µM). The MIC (P. aeruginosa (PA); strain 21, efflux AB+, RPMI) was 2 µg/mL (≈ 2.67 µM), the MIC (P. aeruginosa (PA); strain 22, efflux XY+, MHB) was 256 µg/mL (≈ 342 µM) and the MIC (P. aeruginosa (PA); strain 22, efflux XY+, RPMI) was 2 µg/mL (≈ 2.67 µM). It also gave an MIC (P. aeruginosa (PA); strain 40, efflux EF+, MHB) of 256 µg/mL (≈ 342 µM), an MIC (P. aeruginosa (PA); strain 40, efflux EF+, RPMI) of 2 µg/mL (≈ 2.67 µM) and an MIC (P. aeruginosa (PA); strain 41, efflux CD+, MHB) of 256 µg/mL (≈ 342 µM). For the same molecule, the MIC (P. aeruginosa (PA); strain 41, efflux CD+, RPMI) was 2 µg/mL (≈ 2.67 µM), the MIC (P. aeruginosa (PA); strain 48, efflux CD + EF + XY+, MHB) was 256 µg/mL and the MIC (P. aeruginosa (PA); strain 48, efflux CD + EF + XY+, RPMI) was 2 µg/mL. It also gave an MIC (P. aeruginosa (PA); strain 49, efflux CD + EF + XY+, MHB) of 256 µg/mL, an MIC (P. aeruginosa (PA); strain 49, efflux CD + EF + XY+, RPMI) of 2 µg/mL and an MIC (P. aeruginosa (PA); strain 63, efflux AB + EF + XY+, MHB) of 256 µg/mL. For the same molecule, the MIC (P. aeruginosa (PA); strain 63, efflux AB + EF + XY+, RPMI) was 2 µg/mL, the MIC (P. aeruginosa (PA); strain 68, efflux AB + XY+, MHB) was 256 µg/mL and the MIC (P. aeruginosa (PA); strain 68, efflux AB + XY+, RPMI) was 2 µg/mL. For the same molecule, the MIC (P. aeruginosa (PA); strain 133, efflux EF + XY+, MHB) was 256 µg/mL, the MIC (P. aeruginosa (PA); strain 133, efflux EF + XY+, RPMI) was 4 µg/mL and the MIC (P. aeruginosa (PA); strain 156, efflux EF + XY+, MHB) was 512 µg/mL. The MIC (P. aeruginosa (PA); strain 156, efflux EF + XY+, RPMI) was 4 µg/mL, the MIC (P. aeruginosa (PA); strain 168B, efflux CD + XY+, MHB) was 512 µg/mL and the MIC (P. aeruginosa (PA); strain 168B, efflux CD + XY+, RPMI) was 4 µg/mL. It also gave an MIC (P. aeruginosa (PA); strain 207, efflux AB + EF + XY+, MHB) of 512 µg/mL, an MIC (P. aeruginosa (PA); strain 207, efflux AB + EF + XY+, RPMI) of 4 µg/mL and an MIC (P. aeruginosa (PA); strain 266B, efflux AB + CD+, MHB) of 256 µg/mL. For the same molecule, the MIC (P. aeruginosa (PA); strain 266B, efflux AB + CD+, RPMI) was 2 µg/mL, the MIC (P. aeruginosa (PA); strain 333A, efflux AB + EF+, MHB) was 256 µg/mL and the MIC (P. aeruginosa (PA); strain 333A, efflux AB + EF+, RPMI) was 2 µg/mL. The MIC (P. aeruginosa (PA); strain 335, efflux AB + EF+, MHB) was 512 µg/mL, the MIC (P. aeruginosa (PA); strain 335, efflux AB + EF+, RPMI) was 4 µg/mL and the MIC (P. aeruginosa (PA); strain 391, efflux EF−, MHB) was 128 µg/mL (≈ 171 µM). For the same molecule, the MIC (P. aeruginosa (PA); strain 391, efflux EF−, RPMI) was 2 µg/mL (≈ 2.67 µM), the MIC (P. aeruginosa (PA); strain 392, efflux CD−, MHB) was 128 µg/mL (≈ 171 µM) and the MIC (P. aeruginosa (PA); strain 392, efflux CD−, RPMI) was 2 µg/mL (≈ 2.67 µM). The MIC (P. aeruginosa (PA); strain 394, efflux XY−, MHB) was 256 µg/mL (≈ 342 µM), the MIC (P. aeruginosa (PA); strain 394, efflux XY−, RPMI) was 4 µg/mL (≈ 5.34 µM) and the MIC (P. aeruginosa (PA); strain 395, efflux HI−, MHB) was 128 µg/mL (≈ 171 µM). It also gave an MIC (P. aeruginosa (PA); strain 395, efflux HI−, RPMI) of 2 µg/mL (≈ 2.67 µM), an MIC (P. aeruginosa (PA); strain 396, ompH−, MHB) of 64 µg/mL (≈ 85.4 µM) and an MIC (P. aeruginosa (PA); strain 396, ompH−, RPMI) of 2 µg/mL (≈ 2.67 µM). It also gave an MIC (P. aeruginosa (PA); strain 397, efflux AB−, MHB) of 8 µg/mL (≈ 10.7 µM), an MIC (P. aeruginosa (PA); strain 397, efflux AB−, RPMI) of 1 µg/mL (≈ 1.34 µM) and an MIC (P. aeruginosa (PA); strain 398, efflux CD−, MHB) of 16 µg/mL (≈ 21.4 µM). For the same molecule, the MIC (P. aeruginosa (PA); strain 398, efflux CD−, RPMI) was 1 µg/mL (≈ 1.34 µM), the MIC (P. aeruginosa (PA); strain 399, efflux AB − EF−, MHB) was 16 µg/mL (≈ 21.4 µM) and the MIC (P. aeruginosa (PA); strain 399, efflux AB − EF−, RPMI) was 2 µg/mL (≈ 2.67 µM). For the same molecule, the MIC (P. aeruginosa (PA); strain 400, efflux XY−, MHB) was 8 µg/mL (≈ 10.7 µM), the MIC (P. aeruginosa (PA); strain 400, efflux XY−, RPMI) was 2 µg/mL (≈ 2.67 µM) and the MIC (P. aeruginosa (PA); strain 401, ompH−, MHB) was 8 µg/mL (≈ 10.7 µM). The MIC (P. aeruginosa (PA); strain 401, ompH−, RPMI) was 2 µg/mL (≈ 2.67 µM), the MIC (P. aeruginosa (PA); strain 403, efflux AB − CD − EF − XY−, MHB) was 8 µg/mL (≈ 10.7 µM) and the MIC (P. aeruginosa (PA); strain 403, efflux AB − CD − EF − XY−, RPMI) was 2 µg/mL (≈ 2.67 µM). It also gave an MIC (P. aeruginosa (PA); strain 405, efflux AB − CD − EF − XY−, MHB) of 8 µg/mL (≈ 10.7 µM), an MIC (P. aeruginosa (PA); strain 405, efflux AB − CD − EF − XY−, RPMI) of 2 µg/mL (≈ 2.67 µM) and an MIC (P. aeruginosa (PA); strain 434, efflux AB + CD + XY+, MHB) of 512 µg/mL. It also gave an MIC (P. aeruginosa (PA); strain 434, efflux AB + CD + XY+, RPMI) of 4 µg/mL, an MIC (P. aeruginosa (PA); strain PAO1, REFERENCE, MHB) of 256 µg/mL (≈ 342 µM) and an MIC (P. aeruginosa (PA); strain PAO1, REFERENCE, RPMI) of 4 µg/mL (≈ 5.34 µM). The “effect on IL-8 production” value (IL-8 (CXCL8) release; 33 to 333 μM (FIG. 4)) was “did not inhibit” and the IC50 (IL-8 (CXCL8) release; Homo sapiens, U-937, U937 cells, at 333 μM, read-out: IC50, LPS-induced IL-8 release: NE at 333 μM) was > 333 µM.
